This passage reports IC50 results from ChEMBL document CHEMBL1130915, “Kampanols: novel Ras farnesyl-protein transferase inhibitors from Stachybotrys kampalensis” (Bioorg Med Chem Lett, 1998).

pIC50: −log10 of the molar value.

Assay [1] is described as follows: Inhibition of Geranylgeranyl transferase type I.
Assay [2] addresses Protein farnesyltransferase (Homo sapiens, UniProt P49354+P49356). Put plainly: Inhibition of human recombinant farnesyltransferase. In kind it is protein-complex assay.

In the case of `CC(=O)O[C@H]1CC[C@]2(C)[C@H]3Cc4c(O)cc5c(c4O[C@@]3(C)CC[C@H]2C1(C)C)COC5=O` [KAMPANOL A], the pIC50 – broadly, −log10 of the IC50, conventionally taken in molar units – in assay [1] was less than 4.00; in assay [2], 4.89.
In the same order, the values of `CC(=O)O[C@H]1CC[C@]2(C)[C@H]3Cc4c(O)cc(CO)c(CO)c4O[C@@]3(C)CC[C@H]2C1(C)C` are less than 4.00 and 3.34.
In the same order, the values of `COC1OC(OC)c2c1cc(O)c1c2O[C@@]2(C)CC[C@H]3C(C)(C)[C@@H](OC(C)=O)CC[C@]3(C)[C@H]2C1` (stereo partly drawn) are less than 4.00 and 5.15.
The corresponding values for `CC(=O)O[C@H]1CC[C@]2(C)[C@H]3Cc4c(O)cc(C=O)c(C=O)c4O[C@@]3(C)CC[C@H]2C1(C)C` are less than 4.00 and 3.25.
